In PMC3242765, “Inhibitors of Alphavirus Entry and Replication Identified with a Stable Chikungunya Replicon Cell Line and Virus-Based Assays” (PLoS ONE, 2011):
Structures can show the parent of a compound that is named as a salt.

Key:
CHIKV replicon = experiment: microbe, parasite or virus in culture; format: cell-based, Chikungunya virus (CHIKV)
SFV-Rluc = conditions: for SFV replication % left: primary screening of chemical libraries, compounds tested at 50 µM

CC(=O)Oc1c(C)cc(OCC(O)CNC(C)C)c(C)c1C (centres unmarked) [Metipranolol]
CHIKV replicon % left (CHIKV replicon): 100.5%
SFV replication % left (surviving fraction, remaining percentage of SFV replication) (SFV-Rluc): 46.2%

C[C@H](CCC(=O)O)[C@H]1CC[C@H]2[C@@H]3CC[C@@H]4C[C@H](O)CC[C@]4(C)[C@H]3C[C@H](O)[C@]12C [Deoxycholic acid]
CHIKV replicon % left (CHIKV replicon): 100.8%
SFV replication % left (surviving fraction, remaining percentage of SFV replication) (SFV-Rluc): 86.5%

CC(=O)OCC(=O)[C@@]1(O)CC[C@H]2[C@@H]3CCC4=CC(=O)CC[C@]4(C)[C@H]3[C@@H](O)C[C@@]21C [Hydrocortisone acetate]
CHIKV replicon % left (CHIKV replicon): 72.1%
SFV replication % left (surviving fraction, remaining percentage of SFV replication) (SFV-Rluc): 116.8%

O=C1c2c(O)cc(O)cc2O[C@H](c2ccc(O)c(O)c2)[C@H]1O [(+)-Taxifolin]
CHIKV replicon % left (CHIKV replicon): 105.4%
SFV replication % left (surviving fraction, remaining percentage of SFV replication) (SFV-Rluc): 93.7%

COc1c2ccoc2cc2oc(=O)ccc12 [Bergapten, 5-Methoxypsoralen]
CHIKV replicon % left (CHIKV replicon): 100.5%
SFV replication % left (surviving fraction, remaining percentage of SFV replication) (SFV-Rluc): 46.8%

O[C@H]1[C@H](O)[C@@H](O)[C@H](O)[C@@H](O)[C@H]1O [Inositol]
CHIKV replicon % left (CHIKV replicon): 89.5%
SFV replication % left (surviving fraction, remaining percentage of SFV replication) (SFV-Rluc): 106.0%

C[C@@H]1O[C@@H](O[C@H]2C[C@@H](O)[C@]3(CO)[C@H]4[C@H](O)C[C@]5(C)[C@@H](C6=CC(=O)OC6)CC[C@]5(O)[C@@H]4CC[C@]3(O)C2)[C@H](O)[C@H](O)[C@H]1O [Ouabain]
CHIKV replicon % left (CHIKV replicon): 89.2%
SFV replication % left (surviving fraction, remaining percentage of SFV replication) (SFV-Rluc): 90.9%

COc1ccc(Cc2nccc3cc(OC)c(OC)cc23)cc1OC [Papaverine]
CHIKV replicon % left (CHIKV replicon): 78.2%
SFV replication % left (surviving fraction, remaining percentage of SFV replication) (SFV-Rluc): 99.3%

CC(C)Cc1ccc(C(C)C(=O)O)cc1 (centres unmarked) [Ibuprofen]
CHIKV replicon % left (CHIKV replicon): 100.5%
SFV replication % left (surviving fraction, remaining percentage of SFV replication) (SFV-Rluc): 92.8%

O=C(Oc1ccccc1C(=O)O)c1ccccc1O [Salicylsalicylic acid]
CHIKV replicon % left (CHIKV replicon): 88.9%
SFV replication % left (surviving fraction, remaining percentage of SFV replication) (SFV-Rluc): 127.4%

Cc1ncc([N+](=O)[O-])n1CCO [Metronidazole]
CHIKV replicon % left (CHIKV replicon): 89.2%
SFV replication % left (surviving fraction, remaining percentage of SFV replication) (SFV-Rluc): 69.2%

O=c1c(-c2ccc(O)cc2)coc2cc(O)ccc12 [Daidzein]
CHIKV replicon % left (CHIKV replicon): 104.4%
SFV replication % left (surviving fraction, remaining percentage of SFV replication) (SFV-Rluc): 76.6%

COc1cc(C(=O)O)cc(OC)c1OC [3,4,5-Trimethoxybenzoic acid]
CHIKV replicon % left (CHIKV replicon): 28.8%
SFV replication % left (surviving fraction, remaining percentage of SFV replication) (SFV-Rluc): 34.0%

CCCCCCCCOC(=O)c1cc(O)c(O)c(O)c1 [Octyl gallate]
CHIKV replicon % left (CHIKV replicon): 94.1%
SFV replication % left (surviving fraction, remaining percentage of SFV replication) (SFV-Rluc): 134.4%

O=C1CC(=O)NC(=O)N1 [Barbituric acid]
CHIKV replicon % left (CHIKV replicon): 88.4%
SFV replication % left (surviving fraction, remaining percentage of SFV replication) (SFV-Rluc): 48.8%

CCN(CC)C(C)C(=O)c1ccccc1 (centres unmarked) [Diethylpropion hydrochloride]
CHIKV replicon % left (CHIKV replicon): 29.6%
SFV replication % left (surviving fraction, remaining percentage of SFV replication) (SFV-Rluc): 47.1%

CC(C)(C)NCC(O)c1ccc(O)c(CO)c1 (centres unmarked) [Salbutamol]
CHIKV replicon % left (CHIKV replicon): 78.4%
SFV replication % left (surviving fraction, remaining percentage of SFV replication) (SFV-Rluc): 151.4%

Oc1cc(O)c2c(c1)O[C@H](c1ccc(O)c(O)c1)[C@H](O)C2 [(-)-Epicatechin]
CHIKV replicon % left (CHIKV replicon): 79.6%
SFV replication % left (surviving fraction, remaining percentage of SFV replication) (SFV-Rluc): 97.1%

C[C@H](C(=O)O)c1cccc(C(=O)c2ccccc2)c1.C[C@H](C(=O)O)c1cccc(C(=O)c2ccccc2)c1
CHIKV replicon % left (CHIKV replicon): 99.6%

CN(C)CCCN1c2ccccc2Sc2ccc(Cl)cc21 [Chlorpromazine hydrochloride]
CHIKV replicon % left (CHIKV replicon): 105.4%

O=C(O)c1cc(-c2ccccc2)nc2ccccc12 [PC-048]
SFV replication % left (SFV-Rluc): 65.1%

Oc1cc(O)c2c(c1)O[C@H](c1ccc(O)c(O)c1)[C@@H](O)C2 [NC-011]
SFV replication % left (SFV-Rluc): 64.5%

CN1[C@@H]2CC[C@H]1C[C@@H](OC(=O)C(O)c1ccccc1)C2 (some centres unmarked) [Homatropine hydrobromide]
CHIKV replicon % left (CHIKV replicon): 100.4%
